Measurements taken from patent US6914045B2, “Glycopeptide antibiotics” (Wyeth Holdings Corporation, priority 2001, dated 2005).
In brackets after ≈: the same amount, converted by molar mass.

How the values were obtained:
[1] = test system: Escherichia coli; experiment: in vitro antibacterial evaluation, MIC by broth dilution; assay type: cell-based; conditions: 18 hours at 35° C.
Summary of the method: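 Broth dilution in Muller-Hinton II medium per NCCLS standard M7-A2, with an inoculum of 5×10^5 CFU/mL and antibiotic tested over 64-0.06 μg/mL. MIC was taken as the lowest concentration inhibiting visible growth.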

[2] = anatomic pathology (histopathology of heart and kidney) in mice; assay type: in vivo; conditions: CD-1 mice, 20 mg/kg intravenously daily for 9 days, necropsy day 10, microscopic histopathology
Procedure: Samples of tissues from necropsied mice were formalin-fixed, paraffin-embedded, sectioned, stained with hematoxylin and eosin, and examined microscopically. Histopathologic findings were recorded. These findings were subjectively graded on a scale corresponding to slight, mild, moderate, marked and severe as compared to untreated controls.

[3] = test system: Staphylococcus sp.; experiment: in vitro antibacterial evaluation, MIC by broth dilution; assay type: cell-based; conditions: broth dilution, 18 hours at 35° C.; for MIC Staphylococcus aureus-SMITH (GC 4543): strain GC 4543; for MIC Staphylococcus haemolyticus (GC 4546): strain GC 4546
Summary of the method: (§1)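 Inoculum 5×10^5 CFU/mL; concentrations 64 to 0.06 μg/mL; MIC defined as lowest inhibitory level. Conducted by broth dilution under NCCLS guidelines.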

[4] = test system: Streptococcus sp.; experiment: as above; assay type: cell-based; conditions: broth dilution, 18 hours at 35° C.
Summary of the method: as §1

[5] = test system: Enterococcus sp.; experiment: as above; assay type: cell-based; conditions: broth dilution, 18 hours at 35° C.
Summary of the method: as §1

Structure (SMILES) | MIC Escherichia coli (ATCC 25922) [1] [µg/mL] | MIC Escherichia coli (GC 4559) [1] [µg/mL] | MIC Escherichia coli (GC 4560) [1] [µg/mL] | Anatomical Pathology (Day 10), Heart [2] | Anatomical Pathology (Day 10), Kidney [2] | MIC Staphylococcus aureus-SMITH (GC 4543) [3] [µg/mL] | MIC Staphylococcus haemolyticus (GC 4546) [3] [µg/mL] | MIC Streptococcus agalactiae (GC 4564) [4] [µg/mL] | MIC Streptococcus pneumoniae (ATCC 6301) [4] [µg/mL] | MIC Streptococcus pneumoniae (GC 1894) [4] [µg/mL] | MIC Streptococcus pneumoniae (GC 4565) [4] [µg/mL] | MIC Streptococcus pyogenes (GC 4563) [4] [µg/mL] | MIC Enterococcus avium (GC 4558) [5] [µg/mL] | MIC Enterococcus faecalis (ATCC 29212) [5] [µg/mL] | MIC Enterococcus faecalis (GC 2242) [5] [µg/mL] | MIC Enterococcus faecalis (GC 2691) [5] [µg/mL] | MIC Enterococcus faecalis (GC 3059) [5] [µg/mL] | MIC Enterococcus faecalis (GC 4552) [5] [µg/mL] | MIC Enterococcus faecalis (GC 4553) [5] [µg/mL] | MIC Enterococcus faecalis (GC 4554) [5] [µg/mL] | other results
CCCCCCCN1CC(C(O)C2NC(=O)C(C(O)C3CNC(=N)N3)NC(=O)C(Cc3ccc(OC4OC(CO)C(OC5OC(CO)C(O)C(O)C5O)C(O)C4O)cc3)NC(=O)C(C(C)c3ccccc3)NC(=O)CNC(=O)C(CO)NC2=O)N(C2OC(CO)C(O)C(O)C2O)C1=N (stereo not drawn) [Example 71, Cyclo[glycyl-β-methylphenylalanyl-O-(4-O-hexopyranosylhexopyranosyl)tyrosyl-3-(2-iminoimidazolidin-4-yl)seryl-3-[1-heptyl-3-hexopyranosyl-2-iminoimidazolidin-4-yl]serylseryl]] | >128 | >128 | 128 (≈ 91.9 µM) | 0 | 0 | >128 | >128 | >128 | >128 | >128 | >128 | >128 | >128 | >128 | >128 | >128 | >128 | >128 | >128 | >128 | MIC Staphylococcus aureus (ATCC 29213) ([3]; strain ATCC 29213): >128 µg/mL; MIC Staphylococcus aureus (GC 1131) ([3]; strain GC 1131): >128 µg/mL; MIC Staphylococcus aureus (GC 3051) ([3]; strain GC 3051): >128 µg/mL; MIC Staphylococcus aureus (GC 3053) ([3]; strain GC 3053): >128 µg/mL; MIC Staphylococcus aureus (GC 4541) ([3]; strain GC 4541): >128 µg/mL; MIC Staphylococcus aureus (GC 4542) ([3]; strain GC 4542): >128 µg/mL; MIC Staphylococcus aureus (GC 4544) ([3]; strain GC 4544): >128 µg/mL; MIC Staphylococcus aureus (GC 4545) ([3]; strain GC 4545): >128 µg/mL; MIC Coagulase Negative Staphylococcus (GC 4547) ([3]; strain GC 4547): >128 µg/mL; MIC Coagulase Negative Staphylococcus (GC 4548) ([3]; strain GC 4548): >128 µg/mL; MIC Coagulase Negative Staphylococcus (GC 4549) ([3]; strain GC 4549): >128 µg/mL; MIC Coagulase Negative Staphylococcus (GC 4551) ([3]; strain GC 4551): >128 µg/mL; MIC Coagulase Negative Staphylococcus (GC 6257) ([3]; strain GC 6257): >128 µg/mL; MIC Enterococcus faecalis (GC 6189) [5]: >128 µg/mL; MIC Enterococcus faecium (GC 2243) [5]: >128 µg/mL; MIC Enterococcus faecium (GC 4556) [5]: >128 µg/mL; MIC Enterococcus faecium (GC 4557) [5]: >128 µg/mL
CC(c1ccccc1)C1NC(=O)CNC(=O)C(CO)NC(=O)C(C(O)C2CN(Cc3ccc(-c4ccccc4)cc3)C(=N)N2C2OC(CO)C(O)C(O)C2O)NC(=O)C(C(O)C2CNC(=NCc3ccc(-c4ccccc4)cc3)N2Cc2ccc(-c3ccccc3)cc2)NC(=O)C(Cc2ccc(OC3OC(CO)C(OC4OC(CO)C(O)C(O)C4O)C(O)C3O)cc2)NC1=O (stereo not drawn) [Example 66, Cyclo[glycyl-β-methylphenylalanyl-O-(4-O-hexopyranosylhexopyranosyl)tyrosl-3-[3-(4-phenylbenzyl)-2-(4-phenylbenzyl)iminolimidazolidin-4-yl]seryl-3-[3-hexopyranosyl-2-imino-1-(4-phenylbenzyl)-imidazolidin-4-yl]serylseryl]] | >128 | >128 | 4 (≈ 2.23 µM) | 0 | 0 | 8 (≈ 4.46 µM) | 4 (≈ 2.23 µM) | 32 (≈ 17.8 µM) | 32 (≈ 17.8 µM) | 32 (≈ 17.8 µM) | 64 (≈ 35.7 µM) | 16 (≈ 8.92 µM) | 4 (≈ 2.23 µM) | 16 (≈ 8.92 µM) | 16 (≈ 8.92 µM) | 32 (≈ 17.8 µM) | 32 (≈ 17.8 µM) | 32 (≈ 17.8 µM) | 8 (≈ 4.46 µM) | 64 (≈ 35.7 µM) | MIC Streptococcus pneumoniae (ATCC 6301) ([4]; strain ATCC 6301): 32 µg/mL (≈ 17.8 µM); MIC Streptococcus pneumoniae (GC 1894) ([4]; strain GC 1894): 32 µg/mL (≈ 17.8 µM); MIC Streptococcus pyogenes (GC 4563) ([4]; strain GC 4563): 16 µg/mL (≈ 8.92 µM); MIC Streptococcus agalactiae (GC 4564) ([4]; strain GC 4564): 32 µg/mL (≈ 17.8 µM); MIC Streptococcus pneumoniae (GC 4565) ([4]; strain GC 4565): 64 µg/mL (≈ 35.7 µM); MIC Enterococcus faecalis (GC 6189) [5]: 32 µg/mL (≈ 17.8 µM); MIC Enterococcus faecium (GC 2243) [5]: 8 µg/mL (≈ 4.46 µM); MIC Enterococcus faecium (GC 4556) [5]: 32 µg/mL (≈ 17.8 µM); MIC Enterococcus faecium (GC 4557) [5]: 4 µg/mL (≈ 2.23 µM); MIC Enterococcus faecalis (GC 2242) ([5]; strain GC 2242): 16 µg/mL (≈ 8.92 µM); MIC Enterococcus faecalis (GC 2691) ([5]; strain GC 2691): 32 µg/mL (≈ 17.8 µM); MIC Enterococcus faecalis (GC 3059) ([5]; strain GC 3059): 32 µg/mL (≈ 17.8 µM)
